Legend:
oat, wild = assay: Test C postemergence; format: in vivo, Avena fatua
How it was run: (§1)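 Seeds sown in loam–sand blend and treated preemergence with test chemicals in non-phytotoxic solvent with surfactant; postemergence plants in peat-based medium, treated at 2–18 cm (1- to 4-leaf stage). Greenhouse 13 to 15 days, then visual rating versus controls, 0 (no effect) to 100 (complete control).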

morningglory [1] = assay: Test A preemergence; format: in vivo, Ipomoea spp.; conditions: preemergence, 125 g ai/ha, visual injury approx. 10 days after treatment
How it was run: (§2)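 Injury readout: eye-scored versus untreated controls, 0 to 100. Exposure period: ~10 days, greenhouse. Application: soil-directed spray over sown seed (pre) or spray on seedlings 2–10 cm tall with one or two leaves (post), compound carried in non-phytotoxic solvent including surfactant.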

barnyardgrass [2] = assay: Test C preemergence; format: in vivo, Echinochloa crus-galli; conditions: preemergence
How it was run: as §1

velvetleaf [3] = assay: Test C postemergence; format: in vivo, Abutilon theophrasti; conditions: postemergence
How it was run: as §1

morningglory [4] = assay: Test C postemergence; format: in vivo, Ipomoea coccinea
How it was run: as §1

barnyardgrass [5] = assay: Test A postemergence; format: in vivo, Echinochloa crus-galli; conditions: Postemergence
How it was run: as §2

pigweed = assay: Test C postemergence; format: in vivo, Amaranthus retroflexus; conditions: postemergence
How it was run: as §1

barnyardgrass [6] = assay: Test C postemergence; format: in vivo, Echinochloa crus-galli
How it was run: as §1

galium = assay: Test C preemergence; format: in vivo, Galium aparine
How it was run: as §1

corn [7] = assay: Test A postemergence; format: in vivo, Zea mays; conditions: Postemergence
How it was run: as §2

corn [8] = assay: Test A preemergence; format: in vivo, Zea mays; conditions: preemergence
How it was run: as §2

chickweed = assay: Test C postemergence; format: in vivo, Stellaria media
How it was run: as §1

lambsquarters = assay: Test C postemergence; format: in vivo, Chenopodium album
How it was run: as §1

velvetleaf [9] = assay: Test A postemergence; format: in vivo, Abutilon theophrasti; conditions: Postemergence
How it was run: as §2

oilseed rape = assay: Test C postemergence; format: in vivo, Brassica napus; conditions: postemergence
How it was run: as §1

foxtail, giant = assay: Test A preemergence; format: in vivo, Setaria faberii; conditions: preemergence
How it was run: as §2

[10] = Postemergence, 31 g ai/ha, visually evaluated after 13 to 15 days
[11] = postemergence, 62 g ai/ha, scale 0 to 100
[12] = postemergence, 250 g ai/ha, scale 0 to 100 (0 no effect, 100 complete control)
[13] = postemergence, 125 g ai/ha, scale 0 to 100, 0 no effect, 100 complete control
[14] = 250 g ai/ha, scale 0 to 100 (0 no effect, 100 complete control)
[15] = 125 g ai/ha, 0 to 100 scale, 0 no effect, 100 complete control
[16] = 500 g ai/ha, 0 to 100 scale (0 no effect, 100 complete control)
[17] = 125 g ai/ha, scale 0 to 100, 0 no effect, 100 complete control
[18] = 125 g ai/ha, visual injury approx. 10 days after treatment
[19] = 500 g ai/ha, visual injury after approx. 10 days, 0 to 100 scale (0 no effect, 100 complete control)

## CCc1cc(C(=O)NCC(F)(F)F)nn1Cc1ccnc(Br)c1 [Compound 224]
oat, wild; [10]
  Plant response rating (scale of 0 to 100 where 0 is no effect and 100 is complete control), Oat, Wild: 5
oat, wild; [11]
  Oat, Wild plant response rating: 5
oat, wild; [12]
  Plant response rating, Oat, Wild: 10
oat, wild; [13]
  Plant response rating, Oat, Wild: 10
Morningglory [1]
  Morningglory plant response rating (0 to 100 scale): 30
Barnyardgrass [2]; 31 g ai/ha, visual rating, scale 0 to 100 (0 no effect, 100 complete control), 13 to 15 days
  Barnyardgrass plant response rating: 25
Barnyardgrass [2]; 62 g ai/ha, scale 0 to 100 (0 no effect, 100 complete control), 13 to 15 days
  Barnyardgrass plant response rating: 40
Barnyardgrass [2]; 125 g ai/ha, 13 to 15 days, scale 0 to 100, 0 = no effect, 100 = complete control
  Plant response rating, Barnyardgrass: 100
Barnyardgrass [2]; 250 g ai/ha, scale 0 to 100, 0 is no effect, 100 is complete control
  Barnyardgrass plant response rating: 100
Velvetleaf [3]; [14]
  Plant response rating, Velvetleaf: 25
Velvetleaf [3]; scale 0 to 100
  Velvetleaf plant response rating: 20
Morningglory [4]; [10]
  Plant response rating (scale of 0 to 100 where 0 is no effect and 100 is complete control), Morningglory: 25
Morningglory [4]; [11]
  Morningglory plant response rating: 20
Morningglory [4]; [12]
  Plant response rating, Morningglory: 65
Morningglory [4]; [13]
  Plant response rating, Morningglory: 25
Barnyardgrass [5]; [15]
  Barnyardgrass plant response rating: 90
Barnyardgrass [5]; [16]
  Barnyardgrass plant response rating: 100
pigweed; 62 g ai/ha, scale 0 to 100
  Pigweed plant response rating: 50
pigweed; [14]
  Plant response rating, Pigweed: 75
pigweed; [17]
  Plant response rating, Pigweed: 50
Barnyardgrass [6]; [10]
  Plant response rating (scale of 0 to 100 where 0 is no effect and 100 is complete control), Barnyardgrass: 0
Barnyardgrass [6]; [11]
  Barnyardgrass plant response rating: 10
Barnyardgrass [6]; [12]
  Plant response rating, Barnyardgrass: 10
Barnyardgrass [6]; [13]
  Plant response rating, Barnyardgrass: 10
galium; Preemergence, rate head not shown (block before 16 g ai/ha), scale 0 to 100
  Plant response rating, Galium: 80
galium; preemergence, 62 g ai/ha, scale 0 to 100 (0 no effect, 100 complete control), 13 to 15 days
  Galium plant response rating: 80
galium; preemergence, 125 g ai/ha, 13 to 15 days, scale 0 to 100, 0 = no effect, 100 = complete control
  Plant response rating, Galium: 100
galium; preemergence, 250 g ai/ha, scale 0 to 100, 0 is no effect, 100 is complete control
  Galium plant response rating: 90
Corn [7]; [15]
  Corn plant response rating: 60
Corn [7]; [16]
  Corn plant response rating: 90
Corn [8]; [18]
  Corn plant response rating (0 to 100 scale): 30
Corn [8]; [19]
  Corn plant response rating: 90
chickweed; [10]
  Plant response rating (scale of 0 to 100 where 0 is no effect and 100 is complete control), Chickweed: 50
chickweed; [11]
  Chickweed plant response rating: 55
chickweed; [12]
  Plant response rating, Chickweed: 90
chickweed; [13]
  Plant response rating, Chickweed: 55
lambsquarters; [10]
  Plant response rating (scale of 0 to 100 where 0 is no effect and 100 is complete control), Lambsquarters: 35
lambsquarters; [11]
  Lambsquarters plant response rating: 40
lambsquarters; [12]
  Plant response rating, Lambsquarters: 60
lambsquarters; [13]
  Plant response rating, Lambsquarters: 45
Velvetleaf [9]; [15]
  Velvetleaf plant response rating: 60
Velvetleaf [9]; [16]
  Velvetleaf plant response rating: 100
Oilseed rape; 62 g ai/ha, scale 0 to 100
  Oilseed Rape plant response rating: 50
Oilseed rape; [14]
  Plant response rating, Oilseed Rape: 55
Oilseed rape; [17]
  Plant response rating, Oilseed Rape: 50
foxtail, giant; [18]
  Foxtail, Giant plant response rating (0 to 100 scale): 100
foxtail, giant; [19]
  Foxtail, Giant plant response rating: 100

From patent publication US20150105252A1, “SUBSTITUTED PYRAZOLES AS HERBICIDES” (E I DU PONT DE NEMOURS AND COMPANY, priority 2013, published 2015)
